# Assay results as given in PubChem BioAssay (NCI).
#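 A five-concentration, 48-hour dose response in 96-well plates underlies each endpoint, interpolated linearly between surrounding concentrations. TGI denotes the concentration required for complete inhibition of growth.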
# Key:
# Experiment in all cases: NCI-60 cell line screen, 48 h
# [1] = test system: NCI-H460 lung
# [2] = test system: SF-295 CNS
# [3] = test system: MALME-3M melanoma
# [4] = test system: UACC-62 melanoma
# [5] = test system: LXFL 529 NSCLC
# [6] = test system: HT29 colon
# [7] = test system: K-562 leukemia
# [8] = test system: RPMI-8226 leukemia
# [9] = test system: KM20L2 colon
# [10] = test system: OVCAR-4 ovarian
# [11] = test system: OVCAR-5 ovarian
# [12] = test system: U251 CNS
# [13] = test system: NCI-H23 lung
# [14] = test system: HOP-92 NSCLC
# [15] = test system: ACHN renal
# [16] = test system: SNB-19 CNS
# [17] = test system: SNB-78 CNS
# [18] = test system: SK-OV-3 ovarian
# [19] = test system: UO-31 renal
# [20] = test system: M19-MEL melanoma
# [21] = test system: SF-268 CNS
# [22] = test system: HCT-116 colon
# [23] = test system: KM12 colon
# [24] = test system: SK-MEL-28 melanoma
# [25] = test system: SF-539 CNS
# [26] = test system: RXF 393 renal
# [27] = test system: HOP-62 NSCLC
# [28] = test system: A498 renal
# [29] = test system: M14 melanoma
# [30] = test system: SK-MEL-2 melanoma
# [31] = test system: SNB-75 CNS
# [32] = test system: DMS 114 small cell lung
# [33] = test system: COLO 205 colon
# [34] = test system: UACC-257 melanoma
# [35] = test system: IGROV1 ovarian
# [36] = test system: OVCAR-3 ovarian
# [37] = test system: LOX IMVI melanoma
# [38] = test system: MDA-N
# [39] = test system: SK-MEL-5 melanoma
# [40] = test system: MDA-MB-435
# [41] = test system: T-47D breast
# [42] = test system: MOLT-4 leukemia
# [43] = test system: DU-145 prostate
# [44] = test system: NCI-H522 lung
# [45] = test system: TK-10 renal
# [46] = test system: CAKI-1 renal
# [47] = test system: A549 NSCLC
# [48] = test system: NCI/ADR-RES ovarian
# [49] = test system: MCF7 breast
# [50] = test system: BT-549 breast
# [51] = test system: EKVX NSCLC
# [52] = test system: OVCAR-8 ovarian
# [53] = test system: PC-3 prostate
# [54] = test system: SR leukemia
# [55] = test system: SW-620 colon
# [56] = test system: HCT-15 colon
# [57] = test system: SN12C renal
# [58] = test system: HL-60(TB) leukemia
# [59] = test system: HS 578T breast
# [60] = test system: HCC-2998 colon
# [61] = test system: 786-0 renal
# [62] = test system: MDA-MB-231 breast
# [63] = test system: CCRF-CEM leukemia
# [64] = test system: NCI-H226 lung
smiles,measurement,setting,value
CCOP(=O)(OCC)/C(C#N)=C/c1cc(O)ccc1O,TGI,[1],> 100 µM
same,TGI,[2],> 100 µM
same,TGI,[3],> 100 µM
same,TGI,[4],> 100 µM
same,TGI,[5],> 100 µM
same,TGI,[6],> 100 µM
same,TGI,[7],> 100 µM
same,TGI,[8],> 100 µM
same,TGI,[9],> 100 µM
same,TGI,[10],> 100 µM
same,TGI,[11],> 100 µM
same,TGI,[12],> 100 µM
same,TGI,[13],> 100 µM
same,TGI,[14],> 100 µM
same,TGI,[15],> 100 µM
same,TGI,[16],> 100 µM
same,TGI,[17],> 100 µM
same,TGI,[18],> 100 µM
same,TGI,[19],> 100 µM
same,TGI,[20],> 100 µM
same,TGI,[21],> 100 µM
same,TGI,[22],> 100 µM
same,TGI,[23],> 100 µM
same,TGI,[24],> 100 µM
same,TGI,[25],> 100 µM
same,TGI,[26],> 100 µM
same,TGI,[27],> 100 µM
same,TGI,[28],> 100 µM
same,TGI,[29],> 100 µM
same,TGI,[30],> 100 µM
same,TGI,[31],> 100 µM
same,TGI,[32],> 100 µM
same,TGI,[33],> 100 µM
same,TGI,[34],> 100 µM
same,TGI,[35],> 100 µM
same,TGI,[36],> 100 µM
CN(C)c1ccc(/C=C2\N=C(c3ccccc3)N(/N=C3\C(=O)Nc4ccccc43)C2=O)cc1,TGI,[37],> 100 µM
same,TGI,[38],> 100 µM
same,TGI,[1],> 100 µM
same,TGI,[2],> 100 µM
same,TGI,[3],> 100 µM
same,TGI,[4],> 100 µM
same,TGI,[39],> 100 µM
same,TGI,[40],45.4 µM
same,TGI,[41],> 100 µM
same,TGI,[6],> 100 µM
same,TGI,[42],> 100 µM
same,TGI,[7],> 100 µM
same,TGI,[43],> 100 µM
same,TGI,[10],> 100 µM
same,TGI,[11],> 100 µM
same,TGI,[44],> 100 µM
same,TGI,[12],> 100 µM
same,TGI,[45],> 100 µM
same,TGI,[46],> 100 µM
same,TGI,[13],> 100 µM
same,TGI,[14],> 100 µM
same,TGI,[15],> 100 µM
same,TGI,[16],> 100 µM
same,TGI,[18],> 100 µM
same,TGI,[19],> 100 µM
same,TGI,[47],> 100 µM
same,TGI,[21],> 100 µM
same,TGI,[48],> 100 µM
same,TGI,[49],> 100 µM
same,TGI,[50],> 100 µM
same,TGI,[51],> 100 µM
same,TGI,[52],> 100 µM
same,TGI,[22],> 100 µM
same,TGI,[23],> 100 µM
same,TGI,[24],> 100 µM
same,TGI,[53],> 100 µM
same,TGI,[54],> 100 µM
same,TGI,[55],> 100 µM
same,TGI,[25],> 100 µM
same,TGI,[26],> 100 µM
same,TGI,[27],> 100 µM
same,TGI,[56],> 100 µM
same,TGI,[28],> 100 µM
same,TGI,[57],> 100 µM
same,TGI,[29],> 100 µM
same,TGI,[30],> 100 µM
same,TGI,[58],> 100 µM
same,TGI,[31],> 100 µM
same,TGI,[59],> 100 µM
same,TGI,[33],81 µM
same,TGI,[60],> 100 µM
same,TGI,[34],> 100 µM
same,TGI,[61],> 100 µM
same,TGI,[35],> 100 µM
same,TGI,[36],65.5 µM
same,TGI,[62],> 100 µM
same,TGI,[63],> 100 µM
CCN(CC)c1nc(=O)c(C(=O)C(C)(C)C)c(C(C)(C)C)o1,TGI,[37],> 100 µM
same,TGI,[38],> 100 µM
same,TGI,[1],> 100 µM
same,TGI,[64],> 100 µM
same,TGI,[2],> 100 µM
same,TGI,[3],> 100 µM
same,TGI,[4],> 100 µM
same,TGI,[39],> 100 µM
same,TGI,[40],> 100 µM
same,TGI,[41],> 100 µM
same,TGI,[6],> 100 µM
same,TGI,[42],> 100 µM
same,TGI,[7],> 100 µM
same,TGI,[8],> 100 µM
same,TGI,[43],> 100 µM
same,TGI,[10],> 100 µM
same,TGI,[11],> 100 µM
same,TGI,[44],> 100 µM
same,TGI,[12],> 100 µM
same,TGI,[45],> 100 µM
same,TGI,[46],> 100 µM
same,TGI,[13],> 100 µM
same,TGI,[14],> 100 µM
same,TGI,[15],> 100 µM
same,TGI,[16],> 100 µM
same,TGI,[18],> 100 µM
same,TGI,[47],> 100 µM
same,TGI,[21],> 100 µM
same,TGI,[48],> 100 µM
same,TGI,[49],> 100 µM
same,TGI,[50],> 100 µM
same,TGI,[51],> 100 µM
same,TGI,[52],> 100 µM
same,TGI,[22],> 100 µM
same,TGI,[23],> 100 µM
same,TGI,[24],> 100 µM
same,TGI,[53],> 100 µM
same,TGI,[54],> 100 µM
same,TGI,[55],> 100 µM
same,TGI,[25],> 100 µM
same,TGI,[26],> 100 µM
same,TGI,[27],> 100 µM
same,TGI,[56],> 100 µM
same,TGI,[28],> 100 µM
same,TGI,[57],> 100 µM
same,TGI,[29],> 100 µM
same,TGI,[30],> 100 µM
same,TGI,[58],> 100 µM
same,TGI,[31],> 100 µM
same,TGI,[59],> 100 µM
same,TGI,[33],> 100 µM
same,TGI,[60],> 100 µM
same,TGI,[34],> 100 µM
same,TGI,[61],> 100 µM
same,TGI,[35],> 100 µM
same,TGI,[62],> 100 µM
same,TGI,[63],> 100 µM
CCOC(=O)c1nc2cc(C(F)(F)F)ccc2nc1Oc1ccc(C(=O)OC)cc1,TGI,[37],> 100 µM
same,TGI,[38],> 100 µM
same,TGI,[1],> 100 µM
same,TGI,[64],> 100 µM
same,TGI,[2],> 100 µM
same,TGI,[3],> 100 µM
same,TGI,[4],> 100 µM
same,TGI,[39],> 100 µM
same,TGI,[40],> 100 µM
same,TGI,[41],> 100 µM
same,TGI,[42],> 100 µM
same,TGI,[7],> 100 µM
same,TGI,[8],> 100 µM
same,TGI,[43],> 100 µM
same,TGI,[10],> 100 µM
same,TGI,[11],> 100 µM
same,TGI,[44],> 100 µM
same,TGI,[12],> 100 µM
same,TGI,[45],> 100 µM
same,TGI,[46],> 100 µM
same,TGI,[14],> 100 µM
same,TGI,[15],> 100 µM
same,TGI,[16],> 100 µM
same,TGI,[19],> 100 µM
same,TGI,[47],> 100 µM
same,TGI,[21],> 100 µM
same,TGI,[48],> 100 µM
same,TGI,[49],> 100 µM
same,TGI,[50],> 100 µM
same,TGI,[51],> 100 µM
same,TGI,[52],> 100 µM
same,TGI,[22],> 100 µM
same,TGI,[23],> 100 µM
same,TGI,[24],> 100 µM
same,TGI,[53],> 100 µM
same,TGI,[54],> 100 µM
same,TGI,[55],> 100 µM
same,TGI,[25],> 100 µM
same,TGI,[26],> 100 µM
same,TGI,[56],> 100 µM
same,TGI,[28],> 100 µM
same,TGI,[57],> 100 µM
same,TGI,[29],> 100 µM
same,TGI,[30],> 100 µM
same,TGI,[58],> 100 µM
same,TGI,[31],> 100 µM
same,TGI,[59],> 100 µM
same,TGI,[33],> 100 µM
same,TGI,[60],> 100 µM
same,TGI,[34],> 100 µM
same,TGI,[61],> 100 µM
same,TGI,[35],> 100 µM
same,TGI,[36],> 100 µM
same,TGI,[62],> 100 µM
same,TGI,[63],> 100 µM
